Results from US8138315B2, “Anti-alpha V immunoliposome compositions, methods and uses” (Centocor Ortho Biotech Inc., priority 2007, dated 2012).

Columns and labels:
A375.S2 cells = experiment: Binding and internalization of liposomes at 37° C., confocal microscopy; format: cell-based, human; settings: 37° C. for 10 min, washed, incubated 1 hour
Experimental: (§1) Several human tumor cells bearing human αVβ3/5 integrins were used: (1) A375.S2, human melanoma cell line; (2) MDA-MB-231, Human Breast Carcinoma Cell line; (3) A2780, Human Ovarian Carcinoma Cell line; (4) HT29, Human Colon Carcinoma Cell line; (5) A549, Human Lung Carcinoma Cell line.
Liposomes were prepared as described in Example 1, except in two aspects. First, Dextran Alexa Fluor 488 (Cat No. D-22910, from Molecular Probes) was included in the hydration buffer during the passive encapsulation step of liposome formation, and after the sizing step dialysis was used to remove any unencapsulated Alexa. Second, instead of inserting Fab-PEG-lipid into the liposome bilayer, maleimide-PEG-lipid (MalPEG-DSPE) was inserted into the liposome bilayer at approximately 800 MalPeg-DSPE per liposome at 60° C. for 1 Hr. The insertion step was followed by the conjugation of the Fab to the reactive end of the lipopolymer. The appropriate amount of Fab was added to the MalPEG-DSPE inserted liposomes to achieve a 90:1 anti-alphaV-Fab targeting ligands per liposome ratio. These liposomes were used in the binding and internalization studies described below. […]
A375.S2 cells were harvested by scraping and then resuspended to obtain individualized cells and rejuvenated for 1 hour, at 37° C. About 1 million cells of each tumor type were counted and distributed into individual centrifugation tubes. […]

[1] = tested on: A2780, Human Ovarian Carcinoma Cell line; experiment: Cytotoxicity assay (cell viability, CellTiter 96); format: cell-based; parameters: unit not given beside the values; settings: ovarian cancer A2780; 10 minutes at 37° C., washed, plated 3 and 6 days
Experimental: as §1
(§2) Cell viability was assayed using the CellTiter 96 AQueous One Solution Cell Proliferation Assay from Promega (Cat No. G3581). A Spectra Max 250 plate reader was used, with a reading wavelength of 490 nm. Confocal Microscopy was done using a Nikon, Eelipse, E600. An Eppendorf centrifuge 5804 was used.
(§3) Liposomes bearing 15:1, 40:1, 90:1 and 180:1 alpha-integrin Fab targeting ligands per liposome and containing doxorubicin were prepared as described in Example 1 and 2. These targeted-liposomes were used in the cytotoxicity assay using the various cells lines, as described below.
(§4) Cells were harvested by scraping and then resuspended at 37° C. for 1 hour to obtain individualized cells. About 1 million cells of each tumor type were counted and placed in individual centrifugation tubes. The tubes were centrifuged to obtain a cell pellet. The cells were then incubated with the targeted liposome compositions containing doxorubicin for 10 minutes at 37° C., with mild shaking, 140 rpm. Cells were treated with a quantity of liposomes sufficient to give a doxorubicin concentration of 40 μg/mL. […]

[2] = tested on: A375.S2, human melanoma cell line; experiment: Cytotoxicity assay (cell viability, CellTiter 96); format: cell-based; parameters: unit not given beside the values; settings: 10 minutes at 37° C., washed, plated 3 and 6 days
Experimental: as §1, §2, §3, §4

[3] = tested on: murine melanoma cell line, B16F10; experiment: Cytotoxicity assay (cell viability, CellTiter 96), negative control; format: cell-based; parameters: unit not given beside the values; settings: Murine melanoma B16-F10; 10 minutes at 37° C., washed, plated 3 and 6 days

SMILES: COc1cccc2c1C(=O)c1c(O)c3c(c(O)c1C2=O)C[C@@](O)(C(=O)CO)C[C@@H]3O[C@H]1C[C@H](N)[C@H](O)[C@H](C)O1 [free dox, doxorubicin]
- binding and internalization into A375.S2 cells (A375.S2 cells): drug internalization is evident
- IC50 of doxorubicin [1]: >200
- IC50 of doxorubicin [2]: >200
- IC50 of doxorubicin [3]: >200
